Here are results for 22 compounds from PubChem BioAssay (NCI).

Molecules are shown by their SMILES.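 Test compounds were applied to cells in 96-well plates for 48 hours at 5 doses. TGI marks complete inhibition of growth.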

Test systems include NCI-H460 lung; 786-0 renal; SK-MEL-2 melanoma; NCI-H23 lung; HCT-15 colon; COLO 205 colon; NCI-H522 lung; HCC-2998 colon; SR leukemia; HCT-116 colon.
Assay in all cases: inhibition of tumour cell growth, NCI panel, 48 h

In the case of `COc1ccccc1C1C(Cl)C(=O)N1NC(=O)Cc1ccccc1` (stereo not given), the TGI in the experiment with NCI-H460 lung, with 786-0 renal, with SK-MEL-2 melanoma, in the experiment on NCI-H23 lung, with HCT-15 colon and in the experiment on COLO 205 colon was above 100 µM throughout. The TGI in the experiment with NCI-H522 lung, with HCC-2998 colon, in the experiment on SR leukemia and in the experiment on HCT-116 colon was above 100 µM in each case.
On to `COc1cccc2c(NNc3ccc(Cl)cc3)c3ccc([N+](=O)[O-])cc3nc12`, for which the TGI is 17.2 µM in the experiment with NCI-H460 lung; 21.2 µM in the experiment with 786-0 renal; above 100 µM in the experiment on SK-MEL-2 melanoma; 33.4 µM in the experiment with NCI-H23 lung; 27.3 µM in the experiment with HCT-15 colon; 85 µM in the experiment on COLO 205 colon. Also, the TGI worked out at 21.1 µM in the experiment with NCI-H522 lung, 53 µM in the experiment on HCC-2998 colon, 4 µM in the experiment with SR leukemia and 20.3 µM in the experiment with HCT-116 colon.
Take `Cc1ccc(-c2cn3c(nc4ccccc43)c(C)n2)cc1`: the TGI in the experiment on NCI-H460 lung was above 100 µM; in the experiment on 786-0 renal, above 75.5 µM; with SK-MEL-2 melanoma it was above 63.8 µM; in the experiment on NCI-H23 lung it was above 100 µM; with HCT-15 colon it was above 100 µM; in the experiment on COLO 205 colon it was above 100 µM. Also, the TGI with NCI-H522 lung, with HCC-2998 colon, with SR leukemia and in the experiment on HCT-116 colon was above 100 µM each time.
In the case of `CSc1nc(Cl)c2c(n1)Sc1ncnn1C2O` (stereo not given), the TGI came to 46.4 µM in the experiment on NCI-H460 lung; 9.08 µM in the experiment with 786-0 renal; 41.8 µM with SK-MEL-2 melanoma; 30.9 µM in the experiment with NCI-H23 lung; 18.4 µM in the experiment with HCT-15 colon; 62.7 µM in the experiment with COLO 205 colon. For the same compound, the TGI in the experiment with NCI-H522 lung was 4.23 µM; with HCC-2998 colon, 27.4 µM; with SR leukemia, above 100 µM; in the experiment with HCT-116 colon it was 17.1 µM.
`COc1cc(C=Nc2ccc(Oc3ccc(Cl)cc3)c(Cl)c2)cc(OC)c1OC`: the TGI in the experiment on NCI-H460 lung came out at 39.9 µM; in the experiment with 786-0 renal, 29.6 µM; in the experiment with SK-MEL-2 melanoma, 45.9 µM; with NCI-H23 lung, 42 µM; with HCT-15 colon, 39.2 µM; with COLO 205 colon, 34 µM. Also, the TGI in the experiment on NCI-H522 lung was found to be 28.1 µM; in the experiment with HCC-2998 colon, 40.3 µM; with SR leukemia, 54.1 µM; in the experiment on HCT-116 colon, 29.2 µM.
Turning to `CC(C)(C)OC(=O)N1CC(COS(C)(=O)=O)c2ccc(O)cc21` (stereo not given), the TGI in the experiment on NCI-H460 lung turned out to be 5.45 µM; in the experiment with 786-0 renal, 11 µM; in the experiment with SK-MEL-2 melanoma, 2.9 µM; in the experiment with NCI-H23 lung, 3.05 µM; with HCT-15 colon, 5.68 µM; with COLO 205 colon it was 3.31 µM. In addition, the TGI in the experiment with NCI-H522 lung amounted to 2.39 µM; in the experiment on HCC-2998 colon, 0.991 µM; with SR leukemia it was 5.31 µM; in the experiment on HCT-116 colon, 10.3 µM.
As to `O=C1c2c(ccc3c2CCCC3)CC12Cc1ccccc1C2`, the TGI is above 47.1 µM in the experiment on NCI-H460 lung; above 100 µM with 786-0 renal; 39.6 µM with SK-MEL-2 melanoma; above 96.2 µM in the experiment on NCI-H23 lung; above 49.8 µM with HCT-15 colon; 65.2 µM in the experiment on COLO 205 colon. The TGI in the experiment on NCI-H522 lung is 56.7 µM; in the experiment on HCC-2998 colon, above 74.8 µM; in the experiment on SR leukemia it was above 27.6 µM; in the experiment with HCT-116 colon, 26.1 µM.
As to `COC(=O)[C@H]1ON2O[C@H](OC3CCCC[C@@H]3c3ccccc3)C[C@@H]3CC[C@H]1[C@@]32C` (stereo not given in full), the TGI in the experiment with NCI-H460 lung, in the experiment with 786-0 renal, with SK-MEL-2 melanoma, in the experiment with NCI-H23 lung, in the experiment with HCT-15 colon and in the experiment with COLO 205 colon was above 100 µM each time. For the same compound, the TGI in the experiment with NCI-H522 lung, with HCC-2998 colon, with SR leukemia and in the experiment on HCT-116 colon was above 100 µM each time.
For `C=C(Cl)C(Cl)(CBr)CCC(Cl)C(C)C` (stereo not given), the TGI in the experiment on NCI-H460 lung amounted to 5.47 µM; in the experiment on 786-0 renal it was 4.26 µM; with SK-MEL-2 melanoma it was 4.29 µM; with NCI-H23 lung, 50 µM; with HCT-15 colon, 22.1 µM; in the experiment with COLO 205 colon, 10.3 µM. For the same compound, the TGI was 15.8 µM in the experiment with NCI-H522 lung, 15.2 µM in the experiment on HCC-2998 colon, above 54.7 µM in the experiment with SR leukemia and 5.96 µM in the experiment on HCT-116 colon.
On to `COc1cc(/C=C/C(=O)C(C)(C)C)cc(OC)c1OC`, for which the TGI in the experiment on NCI-H460 lung is 67.4 µM; with 786-0 renal, above 100 µM; in the experiment with SK-MEL-2 melanoma, above 100 µM; in the experiment with NCI-H23 lung, 94.4 µM; in the experiment with HCT-15 colon, above 100 µM; in the experiment with COLO 205 colon it was above 100 µM. For the same compound, the TGI with NCI-H522 lung, with HCC-2998 colon, in the experiment with SR leukemia and in the experiment with HCT-116 colon was above 100 µM throughout.
As for `O=C1N[C@@H](c2c[nH]c3ccc(Br)cc23)C(=O)N[C@H]1c1c[nH]c2ccc(Br)cc12`, the TGI in the experiment on NCI-H460 lung came to 27.8 µM; with 786-0 renal, 25.6 µM; in the experiment with SK-MEL-2 melanoma it was 29.4 µM; with NCI-H23 lung, 28.2 µM; with HCT-15 colon, 37 µM; with COLO 205 colon it was 20 µM. The TGI in the experiment on NCI-H522 lung is 24 µM; with HCC-2998 colon, 11.8 µM; with SR leukemia, 19.3 µM; in the experiment on HCT-116 colon, 21.8 µM.
As for `O=C(O)CCCCCNC(=O)CCC(CN(CC(=O)OCc1ccccc1)CC(=O)OCc1ccccc1)N(CC(=O)OCc1ccccc1)CC(=O)OCc1ccccc1` (stereo not given), the TGI in the experiment with NCI-H460 lung amounted to 55.7 µM; in the experiment with 786-0 renal it was 34.1 µM; in the experiment on SK-MEL-2 melanoma, 32 µM; with NCI-H23 lung, 35 µM; in the experiment with HCT-15 colon it was 34.6 µM; in the experiment with COLO 205 colon, 33.7 µM. The TGI with NCI-H522 lung came to 42.1 µM; in the experiment with HCC-2998 colon, 30.5 µM; in the experiment with SR leukemia it was 42 µM; in the experiment on HCT-116 colon, 31.2 µM.
On to `COc1cc2c(oc(=O)c3c4oc([Si](C)(C)C)cc4cc(OC)c23)c2cccc(O)c12`, for which the TGI with NCI-H460 lung, in the experiment on 786-0 renal, with SK-MEL-2 melanoma, in the experiment with NCI-H23 lung, in the experiment on HCT-15 colon and with COLO 205 colon was above 100 µM in each case. In addition, the TGI in the experiment on NCI-H522 lung, in the experiment on HCC-2998 colon, in the experiment on SR leukemia and in the experiment on HCT-116 colon was above 100 µM in each case.
For the compound `Clc1ccc(CCn2ccc3ccccc32)c(Cl)c1`, the TGI with NCI-H460 lung, in the experiment on 786-0 renal, with SK-MEL-2 melanoma, in the experiment on NCI-H23 lung, with HCT-15 colon and with COLO 205 colon was above 100 µM throughout. Further, the TGI in the experiment on NCI-H522 lung, with HCC-2998 colon, in the experiment with SR leukemia and in the experiment on HCT-116 colon was above 100 µM each time.
For `O=C(C(=O)n1ccc2ccccc21)c1c[nH]c2ccccc12`, the TGI with NCI-H460 lung, with 786-0 renal, in the experiment on SK-MEL-2 melanoma, in the experiment with NCI-H23 lung, with HCT-15 colon and with COLO 205 colon was above 10 µM each time. In addition, the TGI with NCI-H522 lung, in the experiment with HCC-2998 colon, in the experiment on SR leukemia and with HCT-116 colon was above 10 µM in each case.
Take `Nc1c2ccccc2nc2ccc(C(=O)Nc3ccc(S(N)(=O)=O)cc3)cc12`: the TGI in the experiment with NCI-H460 lung, in the experiment on 786-0 renal, with SK-MEL-2 melanoma, in the experiment on NCI-H23 lung, in the experiment on HCT-15 colon and in the experiment with COLO 205 colon was above 100 µM each time. Also, the TGI with NCI-H522 lung, in the experiment on HCC-2998 colon, with SR leukemia and with HCT-116 colon was above 100 µM in each case.
In the case of `O=S(=O)(CC#CCS(=O)(=O)c1ccccc1)c1ccccc1`, the TGI with NCI-H460 lung turned out to be 38.9 µM; in the experiment on 786-0 renal, 2.24 µM; with SK-MEL-2 melanoma it was 19.4 µM; in the experiment on NCI-H23 lung it was 12.2 µM; with HCT-15 colon it was 4 µM; in the experiment on COLO 205 colon it was 5.19 µM. The TGI with NCI-H522 lung is 1.63 µM; in the experiment on HCC-2998 colon, 35.8 µM; in the experiment with SR leukemia it was above 100 µM; with HCT-116 colon, 2.39 µM.
Regarding `CC(=O)CC(=O)Nn1c(-c2cccs2)nc2ccc(I)cc2c1=O`, the TGI in the experiment with NCI-H460 lung, in the experiment on 786-0 renal, in the experiment with SK-MEL-2 melanoma, with NCI-H23 lung, with HCT-15 colon and with COLO 205 colon was above 100 µM in each case. The TGI was above 87.5 µM in the experiment with NCI-H522 lung, above 67.4 µM in the experiment with HCC-2998 colon, above 100 µM in the experiment with SR leukemia and above 100 µM in the experiment on HCT-116 colon.
For `Fc1ccccc1N=c1oc2ccc(Br)cc2cc1-c1nc2ccccc2[nH]1`, the TGI is above 76.6 µM in the experiment on NCI-H460 lung; 8.5 µM in the experiment with 786-0 renal; 26.6 µM with SK-MEL-2 melanoma; 29.8 µM with NCI-H23 lung; above 100 µM with HCT-15 colon; above 100 µM in the experiment on COLO 205 colon. The TGI was 6.82 µM in the experiment on NCI-H522 lung, above 35.2 µM with HCC-2998 colon, above 100 µM with SR leukemia and above 31.8 µM in the experiment with HCT-116 colon.
`C=CC(C)(C)c1cc([C@@H]2COc3cc(O)ccc3C2=O)c(O)c(OC)c1OC`: the TGI with NCI-H460 lung worked out at 41.7 µM; in the experiment on 786-0 renal, 31.9 µM; in the experiment on SK-MEL-2 melanoma, 33.3 µM; in the experiment on NCI-H23 lung, 27.2 µM; with HCT-15 colon it was 32.8 µM; with COLO 205 colon, 45 µM. For the same compound, the TGI with NCI-H522 lung is 20.9 µM; with HCC-2998 colon it was 34.3 µM; in the experiment on SR leukemia, above 100 µM; with HCT-116 colon, 24.5 µM.
With `COc1cccc(C(=O)C(O)c2cccc(OC)c2OC)c1OC` (stereo not given), the TGI with NCI-H460 lung, in the experiment on 786-0 renal, in the experiment with SK-MEL-2 melanoma, in the experiment on NCI-H23 lung, in the experiment with HCT-15 colon and in the experiment on COLO 205 colon was above 100 µM each time. Besides, the TGI in the experiment on NCI-H522 lung, in the experiment with HCC-2998 colon, with SR leukemia and in the experiment on HCT-116 colon was above 100 µM each time.
As to `O=C1CSC(c2ccc(Cl)cc2)N1c1ccc(-n2c(-c3ccccc3)nc3ccccc3c2=O)cc1` (stereo not given), the TGI in the experiment with NCI-H460 lung, in the experiment on 786-0 renal, in the experiment with SK-MEL-2 melanoma, in the experiment with NCI-H23 lung, with HCT-15 colon and with COLO 205 colon was above 100 µM in each case. For the same compound, the TGI in the experiment with NCI-H522 lung, in the experiment with HCC-2998 colon, in the experiment on SR leukemia and in the experiment on HCT-116 colon was above 100 µM throughout.
